# Assay results published in paper PMC7932521, “2-aminobenzimidazoles for leishmaniasis: From initial hit discovery to in vivo profiling” (PLoS Neglected Tropical Diseases, 2021).
# Read-outs that look alike come from different tables or passages of the source.
# Assays:
# [1] = tested on: Leishmania infantum MHOM/MA(BE)/67/ITMAP263 amastigotes; experiment: L. infantum intracellular amastigote assay in PMM; type: cell-based; conditions: for IC50: Leishmania infantum, read-out: L. infantum IC50; for SI: selectivity index (CC50 / IC50): CC50 / L. infantum IC50
# Description: (§1) Leishmania infantum MHOM/MA(BE)/67/ITMAP263 amastigotes were collected from the spleen of infected donor Golden hamsters. Primary peritoneal mouse macrophages (PMM) were used as host cells for in vitro assays. PMM were collected from Swiss mice after 2 days of peritoneal stimulation with a 2% suspension of potato starch and maintained in RPMI-1640 medium supplemented with 200 mM L-glutamine, antibiotics and 5% FCS at 37°C and 5% CO2. Promastigotes of L. infantum chagasi (luciferase) (MHOM/BR/2005/NLC) obtained as described in Reimão et al.,[27] were grown in M199 medium supplemented with 10% FCS, 0.25% hemin, 32 μg/ml hygromycin and 2% sterile human urine at 25°C and 5% CO2.
# (§2) Stock solutions of the compounds at 20 mM were prepared in 100% DMSO. Next, the compounds were serially pre-diluted in DMSO followed by a further dilution in demineralized water to assure a final in-test DMSO concentration below 1%. The compounds were tested at 4-fold dilutions starting at 64 μM.
# For the antileishmania in vitro assays, 3×10^4 PMM/well were seeded in 96-well plates. After 24h, 5×10^5 amastigotes/well were added and incubated for 2h at 37°C. Next, the compounds in 4-fold serial dilutions were added and the plates were further incubated for 5 days (37°C, 5% CO2). Parasite burdens were assessed using an inverted microscope after Giemsa staining. The results were expressed as percent reduction in parasite burdens compared to negative control wells (100% growth) and IC50 values were determined. Values represent the geometric mean of at least two independent experiments. Miltefosine was used as the positive control in all plates.
# [2] = tested on: PMM (Primary Mouse Macrophages); experiment: Cytotoxicity on primary peritoneal mouse macrophages; type: cell-based; conditions: Mus musculus, Macrophage, read-out: PMM IC50
# Description: as §1, §2
# [3] = Experimental distribution coefficient (eLogD); type: physicochemical; conditions: pH 7.4
# Description: To determine the lipophilicity of the compounds, a methodology based on the retention time of molecules in reverse stationary phase (Ascentis RP-Amide HPLC column) was used. The chromatogram was obtained using LC-MS/MS. Test compounds were prepared at 1.0 μg/mL by adding the stock solution at (1:1) mobile phases A:B + internal standard at 200nM (A: 5% methanol in 10mM ammonium acetate pH 7.4, B: 100% methanol), DMSO concentration must be lower than 2%. […] The retention time (in minutes) of each of the eight standards was plotted against their LogD values. The resulting equation for the calibration curve (y = mx + b) was used to calculate the LogD values for the test compounds.
# [4] = Mouse liver microsomal stability; type: in vitro ADME
# Description: The metabolic stability of the compounds was evaluated in human (pool of 200 donors, XenoTech) and mouse liver microsomes (CD1 mouse, GIBCO). Test compounds were prepared at a concentration of 0.5 μM and incubated with 0.25 mg/mL liver microsomes at pH 7.4 and 37°C. The reaction was started by addition of NADPH at […]. Samples were taken at 0, 5, 10, 15, 20 and 30 minutes. The reaction was stopped by the addition of acetonitrile:methanol (1:1) containing an internal standard (tolbutamide at 50 nM). Compounds were quantified by liquid chromatography triple quadrupole mass spectrometry (LC-MS/MS). Peak area ratios (analyte/internal standard) were converted to % remaining using the area ratio at time 0 as 100%. Half-life (t1/2 = ln(2)/k) in minutes and intrinsic clearance (Clint = k x 1000/(0.25)) in μL/min/mg were calculated using a non-linear regression from % remaining versus incubation time. From this plot, the slope (k) was determined. The analysis conditions were: analytical column (Gemini C18, […], Phenomenex), electrospray ionization source (ESI) in positive and negative mode, mobile phase A (water + 0.1% formic acid) and B (acetonitrile + 0.1% formic acid), flow rate of 0.7 mL/min.
# [5] = Parallel artificial membrane permeability assay (PAMPA); type: in vitro ADME
# Description: To determine the passive permeability of the compounds, a 96-well plate containing membranes pre-coated with lipids (Corning Gentest # 353015) was used. The solutions of the compounds were prepared by diluting the stock solutions (10mM) in phosphate buffered saline (PBS) pH 6.5 at a final concentration of 10μM. The solutions diluted in PBS pH 6.5 were then added to the donor portion of the plate (300 μl/well), while PBS pH 7.4 (200 μl/well) was added to the acceptor portion. The two portions of the plate were then coupled, and the system was incubated for 5 h at 37°C. At the end of the incubation, samples were collected from the donor and acceptor plates, and then added to plates containing quench solution (10% water and 90% methanol: acetonitrile (50:50) + 50 nM tolbutamide). The final concentrations of compounds in the donor, acceptor, and initial solution (T0) wells were analyzed using LC-MS/MS. The results were used to calculate an effective permeability (Pe) value. The PAMPA assay was performed in triplicate (n = 3).
# MRC-5 cytotoxicity = type: cell-based; conditions: human, MRC-5 cells; S1 Data
# [6] = 120 h, intracellular amastigotes in PMM, 5 days
# [7] = reverse-phase HPLC retention (Ascentis RP-Amide column), experimental
# [8] = reverse stationary phase HPLC column (Ascentis RP-Amide), S1 Data
# [9] = PAMPA, S1 Data, read-out: PAMPA Pe
structure (smiles),measurement,setting,value
CCCn1c(NC(=O)Cc2ccc(Cl)cc2)nc2ccccc21 [Compound 1],IC50,[1]; [6],12 µM
same,IC50,[2],> 64 µM
same,chromatographic logD,[3]; [7],4.6
same,MLM CLint,[4]; mouse liver microsome intrinsic clearance,3094 µL/min/mg
same,"Papp at 5 h, 10 μM","[5]; passive permeability, read-out: PAMPA",6.7 ×10⁻⁶ cm/s
"CCCn1c(NC(=O)Cc2ccc(Cl)cc2)nc2ccc(F)cc21 [Compound 3, CCCn1c(cc(F)cc2)c2nc1NC(=O)Cc3ccc(Cl)cc3]",SI: selectivity index (CC50 / IC50),[1],4
same,IC50,[1]; [6],2.9 µM
same,IC50,[1]; S1 Data,2.94 µM
same,IC50,[2],12.7 µM
same,CC50,MRC-5 cytotoxicity,56.7 µM
same,chromatographic logD,[3]; [8],4.31
same,MLM CLint,[4]; S1 Data,1590 µL/min/mg
"CCCn1c(NC(=O)Cc2ccc(Cl)cc2)nc2cc(F)ccc21 [Compound 4, CCCn1c(ccc(F)c2)c2nc1NC(=O)Cc3ccc(Cl)cc3]",SI: selectivity index (CC50 / IC50),[1],5
same,IC50,[1]; [6],4.3 µM
same,IC50,[1]; S1 Data,4.35 µM
same,IC50,[2],20.2 µM
same,CC50,MRC-5 cytotoxicity,> 64 µM
same,chromatographic logD,[3]; [8],4.26
same,MLM CLint,[4]; S1 Data,1510 µL/min/mg
"CCCn1c(NC(=O)Cc2ccc(Cl)cc2)nc2cc(C(F)(F)F)ccc21 [Compound 7, CCCn1c(ccc(C(F)(F)F)c2)c2nc1NC(Cc3ccc(Cl)cc3)=O]",SI: selectivity index (CC50 / IC50),[1],8
same,potency compared to initial hit 1,[1]; L. infantum IC50,6 fold
same,IC50,[1]; [6],2 µM
same,IC50,[1]; S1 Data,2.01 µM
same,IC50,[2],16 µM
same,CC50,MRC-5 cytotoxicity,11.2 µM
same,eLogD,[3]; experimental,4.7
same,chromatographic logD,[3]; [8],4.69
same,MLM CLint,[4]; S1 Data,283 µL/min/mg
"Cn1c(NC(=O)Cc2ccc(Cl)cc2)nc2ccccc21 [Compound 17, O=C(Nc1n(C)c(cccc2)c2n1)Cc3ccc(Cl)cc3]",IC50,[1]; [6],33 µM
same,IC50,[1]; S1 Data,32.5 µM
same,IC50,[2],32 µM
same,CC50,MRC-5 cytotoxicity,> 64 µM
"CC(C)(C)Cn1c(NC(=O)Cc2ccc(C(F)(F)F)cc2)nc2ccccc21 [Compound 20, CC(Cn1c(cccc2)c2nc1NC(Cc3ccc(C(F)(F)F)cc3)=O)(C)C]",IC50,[1]; [6],8.2 µM
same,IC50,[1]; S1 Data,8.18 µM
same,IC50,[2],22.6 µM
same,CC50,MRC-5 cytotoxicity,> 32 µM
same,chromatographic logD,[3]; [7],4.9
"O=C(Cc1ccc(Cl)cc1)Nc1nc2ccc(F)cc2n1CC(F)(F)F [Compound 23, Fc1cc2c(nc(NC(=O)Cc3ccc(Cl)cc3)n2CC(F)(F)F)cc1]",IC50,[1]; [6],4.8 µM
same,IC50,[1]; S1 Data,4.82 µM
same,IC50,[2],45.2 µM
same,CC50,MRC-5 cytotoxicity,> 64 µM
same,chromatographic logD,[3]; [8],4.46
same,"Papp at 5 h, 10 μM",[5]; [9],7.07 ×10⁻⁶ cm/s
"O=C(Cc1ccc(F)cc1)Nc1nc2cc(F)ccc2n1C1CCNCC1 [Compound 25, O=C(Nc1n(C2CCNCC2)c(c3n1)ccc(F)c3)Cc4ccc(F)cc4]",IC50,[1]; [6],34 µM
same,IC50,[1]; S1 Data,34.4 µM
same,IC50,[2],> 64 µM
same,CC50,MRC-5 cytotoxicity,> 64 µM
same,chromatographic logD,[3]; [8],3.08
same,"Papp at 5 h, 10 μM",[5]; [9],0.19 ×10⁻⁶ cm/s
"CCN(CC)CCCn1c(NC(=O)Cc2ccc(F)cc2)nc2ccc(C#N)cc21 [Compound 26, CCN(CC)CCCn1c(cc(C#N)cc2)c2nc1NC(Cc3ccc(F)cc3)=O]",IC50,[1]; S1 Data,> 64 µM
same,IC50,[2],> 64 µM
same,CC50,MRC-5 cytotoxicity,> 64 µM
same,microsomal CLint at 0.5 μM,"[4]; CD1, mouse, liver microsomes, pH 7.4, S1 Data, read-out: MLM CLint",154 µL/min/mg
